Assay results from patent US7998940B2, “Aptamers to von Willebrand factor and their use as thrombotic disease therapeutics” (Archemix Corp., priority 2004, dated 2011).
“And” between values parts separate entries of the source, which are not always exact repeats. Equal values may be shown once. [invdT] = inverted (3'-3') thymidine; d = 2'-deoxy (DNA); m = 2'-O-methyl

Key:
[1] = pharmacokinetics after 3 mg/kg IV in cynomolgus macaques (Oligreen, HPLC); format: in vivo
Description: ARC1368 (SEQ ID NO 291), 1779 (SEQ ID NO 320) and 1780 (SEQ ID NO 321) (as described in Example 2 above) were injected intravenously into cynomolgus macaques (n=3/group) at a dosage of 3 mg/kg which was expected to yield an instantaneous plasma concentration of 3 uM, approximately 30-fold higher than the putative effective dose. Subsequently, citrated blood samples were collected at regular intervals and processed for plasma.
Subsequently, plasma aptamer concentrations were determined using the Oligreen assay (Gray et al., Antisense and Nucleic Acid Drug Development 7 (3):133-140 (1997). The data were subsequently analyzed using the program WinNonlin to yield the pharmacokinetic parameters listed in Tables 29 to 31 below.
Following the Oligreen assay analysis, plasma aptamer concentrations were determined for the animals dosed with ARC1779 (SEQ ID NO 320) using a validated HPLC-based assay. The HPLC data were analyzed via noncompartmental and 2-compartment analysis using the program WinNonlin.

[2] = test system: vWF dependent platelet plug formation, human whole blood; test: PFA-100 assay, human whole blood; format: cell-based; details: for ~IC95 PFA-100 (nM) with citrated human whole blood: minimum concentration that extends closing time to 300 seconds
Excerpt: (§1) Another assay of this Example, using the PFA-100 instrument, is an agonist independent but vWF dependent assay that uses the PFA-100 instrument (Harrison et al., Clin. Lab. Haem., v24, p 225-32 (2002)). The PFA-100 simulates the formation of a hemostatic plug under conditions of high shear force in vivo by recording the time required for a platelets to aggregate and block the flow of citrated whole blood through a microscopic aperture in a membrane coated with collagen and either epinephrine or ADP. This activity is von Willebrand factor dependent as high MW vWF multimers bind to immobilized collagen on the membrane and then bind to and activate platelets because of the shear force induced by drawing the blood through the microscopic aperture.
Fresh whole blood was collected from healthy non-steroidal anti-inflammatory drug (NSAID) free cynomolgus macaques. Aptamers were diluted with physiological saline from Aldon (Cat#9420306) in no-additive vacutainer tubes (Cat#366434, Becton Dickenson). Samples were loaded onto collagen/epinephrine test cartridges (Cat#B4170-20A, Dade Behring) which were used in the PFA-100 machine (Dade Behring). Trigger solution (Cat#B4170-50, Dade Behring) was used in the self-test and to pre-wet the test cartridges. O-ring cleaning pads (Cat#B4170-73, Dade Behring) were used in the self-test and in the O-ring cleaning process.
A self-test, which included an O-ring cleaning process, was always run on the PFA-100 machine before running any samples to ensure proper function of the machine.
During the entire experiment, the tubes of whole blood were gently inverted every five minutes to prevent settling.
In order to assay the titration of aptamer in whole blood, the aptamer was added to no-additive vacutainer tubes and diluted to the desired concentrations (ex: 0 nM, 1 nM to 1000 nM) using physiological saline such that the final volume was […]. When the PFA-100 was ready to run the next set of samples, 1940 μl of whole blood was added to the tube containing a concentration of aptamer. This tube was gently inverted three times to thoroughly mix the aptamer and blood. Samples were always run in duplicate on the PFA-100 machine. 800 μl of this blood mixture was loaded into the collagen/epinephrine test cartridges. The test cartridges were loaded onto the PFA-100 machine. The time of occlusion of the aperture was measured by the PFA-100, with a maximal time of 300 seconds. We estimate the IC95 in this assay to be the minimum concentration of aptamer that extends the closing time to 300 seconds.

[3] = pharmacokinetics of ARC1779 after 0.5 mg/kg IV bolus in cynomolgus macaques (HPLC); format: in vivo; details: 0.5 mg/kg single IV bolus, 2-compartment analysis
Description: -PK/PD correlation of ARC1779 was evaluated in three cynomolgus macaques after a single intravenous (IV) bolus dose at 0.5 mg/kg. ARC1779 levels in the plasma were correlated to PD effects of ARC1779 in inhibition of platelet function or prolongation of cutaneous bleeding time (CBT).
Following IV administration, blood was collected percutaneously at various time points post-dose for PK and PD analysis. PD effect of ARC1779 on platelet function was determined by PFA-100 assays and effect of ARC1779 on bleeding was measured by CBT time. In addition, plasma samples were analyzed by HPLC for quantitation of ARC1779 levels. PK parameter estimates were determined by 2-compartment analysis.

[4] = not given; remark: listed apart in the source
[5] = test system: ADP induced platelet aggregation; test: ADP Induced Platelet Aggregation (AIPA) in human PRP; format: cell-based; details: in words, 10 micromolar ADP
Description: Another assay of this Example used ADP to induce platelet aggregation.
AIPA was performed with human PRP exactly as was done for BIPA described above in Example 3C with the exception that instead of adding botrocetin, 10 micromolar ADP (Chronolog, Haverton, Pa.) was added to induce platelet aggregation.

[6] = test system: vWF dependent platelet plug formation, cynomolgus whole blood; test: PFA-100 assay, cynomolgus macaque whole blood; format: cell-based, cynomolgus macaques; details: minimum concentration that extends closing time to 300 seconds
Excerpt: as §1
Fresh whole blood was collected from healthy non-steroidal anti-inflammatory drug (NSAID) free cynomolgus macaques. […]
In order to assay the titration of aptamer in whole blood, the aptamer was added to no-additive vacutainer tubes and diluted to the desired concentrations (ex: 0 nM, 1 nM to 1000 nM) using physiological saline such that the final volume was […]. When the PFA-100 was ready to run the next set of samples, 1940 μl of whole blood was added to the tube containing a concentration of aptamer. […] The time of occlusion of the aperture was measured by the PFA-100, with a maximal time of 300 seconds. […]

vWF = vWF (Homo sapiens, UniProt P04275, D1472H/Q852R/T1381A); test: cellular / biological vWF dependent assays of Example 3, not specified further; format: cell-based; details: in words; FACS, BIPA (and PFA-100) assays of Example 3
Sequence of vWF (P04275 764-2813 Q852R/T1381A/D1472H): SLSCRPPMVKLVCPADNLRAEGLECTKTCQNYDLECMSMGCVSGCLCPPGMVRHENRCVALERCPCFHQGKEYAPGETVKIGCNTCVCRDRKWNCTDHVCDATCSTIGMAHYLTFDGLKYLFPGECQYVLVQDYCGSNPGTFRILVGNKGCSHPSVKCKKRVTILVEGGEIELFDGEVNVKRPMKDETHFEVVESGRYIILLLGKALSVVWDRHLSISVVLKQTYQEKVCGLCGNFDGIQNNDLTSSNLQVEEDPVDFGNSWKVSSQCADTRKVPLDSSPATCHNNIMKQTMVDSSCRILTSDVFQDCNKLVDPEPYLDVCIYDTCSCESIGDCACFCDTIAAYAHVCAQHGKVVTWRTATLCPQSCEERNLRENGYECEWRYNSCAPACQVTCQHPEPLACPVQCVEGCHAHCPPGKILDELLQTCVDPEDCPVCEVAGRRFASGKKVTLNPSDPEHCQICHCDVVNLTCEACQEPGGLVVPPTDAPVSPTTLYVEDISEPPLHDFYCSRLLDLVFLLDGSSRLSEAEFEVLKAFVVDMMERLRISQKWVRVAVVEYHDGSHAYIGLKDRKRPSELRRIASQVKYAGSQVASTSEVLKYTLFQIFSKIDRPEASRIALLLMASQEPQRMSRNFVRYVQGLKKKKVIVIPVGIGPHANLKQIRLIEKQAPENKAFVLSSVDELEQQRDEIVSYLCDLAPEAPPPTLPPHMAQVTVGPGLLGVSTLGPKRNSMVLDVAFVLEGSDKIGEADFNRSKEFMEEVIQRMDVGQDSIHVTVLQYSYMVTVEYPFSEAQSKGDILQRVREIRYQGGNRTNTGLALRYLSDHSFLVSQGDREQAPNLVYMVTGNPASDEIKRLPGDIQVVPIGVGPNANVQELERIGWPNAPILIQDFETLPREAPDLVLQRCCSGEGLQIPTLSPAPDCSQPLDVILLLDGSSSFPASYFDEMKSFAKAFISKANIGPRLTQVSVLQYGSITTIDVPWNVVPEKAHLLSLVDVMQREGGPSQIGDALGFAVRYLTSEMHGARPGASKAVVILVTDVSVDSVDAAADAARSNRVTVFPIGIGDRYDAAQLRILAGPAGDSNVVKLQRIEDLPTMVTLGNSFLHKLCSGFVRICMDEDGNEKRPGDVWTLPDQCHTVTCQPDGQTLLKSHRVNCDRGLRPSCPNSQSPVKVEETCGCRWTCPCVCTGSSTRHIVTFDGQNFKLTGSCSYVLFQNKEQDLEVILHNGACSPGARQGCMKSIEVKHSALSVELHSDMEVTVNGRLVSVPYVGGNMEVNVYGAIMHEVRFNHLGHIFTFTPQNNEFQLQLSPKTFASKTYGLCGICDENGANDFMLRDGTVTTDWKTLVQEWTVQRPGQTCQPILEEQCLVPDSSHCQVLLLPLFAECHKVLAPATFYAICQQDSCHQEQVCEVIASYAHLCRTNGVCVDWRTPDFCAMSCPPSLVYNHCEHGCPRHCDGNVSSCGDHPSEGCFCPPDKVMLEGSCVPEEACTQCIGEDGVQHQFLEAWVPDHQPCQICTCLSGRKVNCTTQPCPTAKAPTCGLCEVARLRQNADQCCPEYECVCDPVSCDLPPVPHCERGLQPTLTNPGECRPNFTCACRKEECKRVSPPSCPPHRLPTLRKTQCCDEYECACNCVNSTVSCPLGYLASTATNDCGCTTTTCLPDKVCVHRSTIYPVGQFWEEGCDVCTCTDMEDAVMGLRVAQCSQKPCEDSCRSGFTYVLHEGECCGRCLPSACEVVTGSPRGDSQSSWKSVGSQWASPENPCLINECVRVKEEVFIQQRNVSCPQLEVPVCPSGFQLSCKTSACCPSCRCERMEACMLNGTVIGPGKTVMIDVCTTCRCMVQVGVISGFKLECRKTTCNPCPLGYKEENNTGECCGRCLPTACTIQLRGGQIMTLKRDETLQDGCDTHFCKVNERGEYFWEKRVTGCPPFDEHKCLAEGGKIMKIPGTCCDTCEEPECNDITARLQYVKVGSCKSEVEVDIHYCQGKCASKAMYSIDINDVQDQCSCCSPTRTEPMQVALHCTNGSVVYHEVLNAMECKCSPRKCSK
Excerpt: The effectiveness of various aptamers in blocking vWF function in several biological assays is described in this Example.
In one assay botrocetin is used. Botrocetin, a protein isolated from snake venom, is known to induce von Willebrand Factor binding to the gpib receptor on live and fixed platelets. This reaction causes agglutination of suspensions of fixed platelets via vWF multimerization. In preparations of platelet rich plasma (hereinafter “PRP”), vWF/botrocetin induction of agglutination is followed by a second phase of platelet aggregation caused by metabolic activation of the platelets. These two reactions: vWF binding to fixed platelets and vWF mediated platelet aggregation, can be used to measure the activity of aptamers of the invention.

[7] = test system: rabbit vWF A1 domain (SEQ ID NO 6); test: dot blot KD determination, rabbit vWF A1 domain; format: binding; details: dot blot, 12 point protein titration, 1xDPBS plus 0.1 mg/mL BSA, room temperature, 30 minutes
Sequence of rabbit vWF A1 domain (SEQ ID NO 6) (as listed by the source): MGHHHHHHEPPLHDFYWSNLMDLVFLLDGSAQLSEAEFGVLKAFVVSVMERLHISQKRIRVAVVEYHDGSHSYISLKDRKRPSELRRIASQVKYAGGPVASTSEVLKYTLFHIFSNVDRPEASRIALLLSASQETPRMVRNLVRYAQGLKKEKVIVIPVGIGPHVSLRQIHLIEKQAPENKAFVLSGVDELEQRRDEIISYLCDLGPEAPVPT
Description: A 12 point protein titration was used in the dot blot assay (300 nM, 100 nM, 30 nM, 10 nM, 3 nM, 1 nM, 300 pM, 100 pM, 30 pM, 10 pM, 3 pM, 0 pM) in 1×DPBS plus 0.1 mg/mL BSA at room temperature for 30 minutes.

[8] = 3 mg/kg IV, monkeys, Oligreen assay, noncompartmental, individual animals 2101, 2103, 2104
[9] = 3 mg/kg IV, monkeys, Oligreen assay, noncompartmental, mean of 3 animals
[10] = cynomolgus monkey, in vivo, iv, 3 mg/kg

PEG20K-NH2-mGmCmGmUdGdCdAmGmUmGmCmCmUmUmCmGmGmCdCmG-s-TmGdCdGdGTmGmCdCmUdCdCmGmUdCmAmCmGmC-3T [ARC1779]
distribution half-life (t1/2α) ([1]; 3 mg/kg IV, HPLC-based assay): 1.4 h
elimination half-life (t1/2β) ([1]; 3 mg/kg IV, HPLC-based assay): 12.9
distribution phase α-half-life ([1]; 3 mg/kg IV, Oligreen assay): ~2 h
AUClast [1, 8]: 309.245 µg·h/mL and 336.59 µg·h/mL and 235.503 µg·h/mL
Cmax [1, 8]: 69.065 µg/mL and 65.717 µg/mL and 70.344 µg/mL
MRTlast [1, 8]: 5.27 h and 4.66 h and 2.69 h
Tmax [1, 8]: 0.25 hr (2×) and 0.50 hr
AUClast, Mean [1, 9]: 293.779 µg·h/mL
Cmax, Mean [1, 9]: 68.375 µg/mL
MRTlast, Mean [1, 9]: 4.21 h
Tmax, Mean [1, 9]: 0.33 h
concentration-time profile ([1]; in words, 3 mg/kg IV, HPLC method): biphasic
pharmacokinetic profile ([1]; in words, 3 mg/kg IV, mean concentration-time profile, OliGreen assay): mainly monophasic
~IC95 PFA-100 (nM) with citrated human whole blood [2]: ~100 nM
distribution half-life (t1/2α) [3]: approximately 1.0 hour

dGdGdCdGTdGdCdAdGTdGdCdCTTdCdGdGdCdCdGTdGdCdGdGTdGdCdCTdCdCdGTdCdAdCdGdCdC-3T (DNA GGCGTGCAGTGCCTTCGGCCGTGCGGTGCCTCCGTCACGCC; DNA, [invdT] at 3' end, backbone and methylation of C not given here) [ARC1172]
T½ Human plasma: 17 h
~IC95 PFA-100 (nM) with citrated human whole blood [2]: ~100 nM
T½ Rat plasma [4]: 3 h

mGmCmGmUdGdCdAmGmUmGmCmCmUmUmCmGmGmCdCmG-s-TmGdCdGdGTmGmCdCmUdCdCmGmUdCmAmCmGmC-3T (GCGUGCAGUGCCUUCGGCCGTGCGGTGCCUCCGUCACGC; sugars from the 5' end mmmmdddmmmmmmmmmmmdmdmddddmmdmddmmdmmmm, [invdT] at 3' end, backbone not given here) [ARC1368]
T½ Human plasma: 63 h
ability to block AIPA [5]: no ability to block AIPA
~IC95 PFA-100 (nM) with citrated C. macaque whole blood [6]: ~100 nM
AUC0-last, Mean [1, 10]: 25224 ng·h/mL
MRTlast, Mean [1, 10]: 4.48 h
distribution phase [1, 10]: rapid distribution phase
pharmacokinetic profile [1, 10]: mainly monophasic
~IC95 PFA-100 (nM) with citrated human whole blood [2]: ~100 nM
potency in PFA-100 assay ([2]; in words, human whole blood): potency comparable to ReoPrO™
T½ Rat plasma [4]: 21 h

B1: AMX237.G6: DNA SELEX 2 aptamer clone (nucleic acid)
DNA: CTACCTACGATCTGACTAGCGTGCAGTGCCTATTCCAGGCCGTGCGGTGCCTCCGTCACGCTTACTCTCATGTAGTTCC
modifications: DNA, backbone and methylation of C not given here
notes: DNA SELEX 2 aptamer clone
activity in the cellular / biological assays (vWF): slightly more potent
Kd [7]: 47 nM
